This experiment deals with Somatostatin receptor type 2 (Rattus norvegicus) (UniProt P30680). The experiment can be described thus: Binding affinity for SSTR2 receptors of rat cortex membranes was determined by using [125I][Tyr3]-octreotide radioligand.

We go through one molecule from BindingDB's records for doi:10.1016/s0960-894x(98)00187-5 (Novartis Pharma, 1999).

Chain of Somatostatin receptor type 2 (Rattus norvegicus) (P30680 whole entry, looked up): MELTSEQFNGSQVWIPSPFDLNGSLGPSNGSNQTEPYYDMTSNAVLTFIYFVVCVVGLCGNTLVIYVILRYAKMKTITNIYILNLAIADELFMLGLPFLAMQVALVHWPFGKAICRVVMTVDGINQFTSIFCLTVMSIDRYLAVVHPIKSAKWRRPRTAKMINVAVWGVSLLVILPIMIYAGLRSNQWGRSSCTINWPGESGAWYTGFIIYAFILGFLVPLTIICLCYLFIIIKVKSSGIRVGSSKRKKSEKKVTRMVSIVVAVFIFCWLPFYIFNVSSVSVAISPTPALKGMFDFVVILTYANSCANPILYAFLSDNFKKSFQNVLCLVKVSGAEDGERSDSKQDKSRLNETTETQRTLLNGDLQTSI

Turning to `C[C@@H](O)[C@@H]1NC(=O)[C@H](CCCCN)NC(=O)[C@@H](Cc2c[nH]c3ccccc23)NC(=O)[C@H](Cc2ccccc2)NC(=O)[C@@H](NC(=O)[C@@H](Cc2ccccc2)NC(=O)CN2CCN(CC(=O)O)CCN(CC(=O)O)CCN(CC(=O)O)CC2)CSSC[C@@H](C(=O)N[C@H](CO)[C@@H](C)O)NC1=O`, the Ki was determined as 3.2 nM.

The term Ki denotes a dissociation constant, usually derived from enzyme kinetics or from competition with a known ligand. A lower Ki goes with higher affinity.
